Measured values as given in patent publication US7235548B2, “Compounds and their use as positive AMPA receptor modulators” (NeuroSearch A/S, priority 1998, dated 2007).
pIC50: −log10 of the molar value.

What was measured:
AMPA receptor = experiment: Voltage clamp (whole cell patch clamp), current induced by AMPA in cultured mouse neocortical neurons; assay type: cell-based; settings: for reversibility of the potentiation: after wash out of the compound; for potentiation of the current induced by application of 30 μM AMPA: holding voltage −60 mV
Experimental: Experiments were performed in voltage clamp using conventional whole cell patch clamp methods (Hamill et al., 1981), essentially as described previously (Mathiesen et al., 1998). The following salt solutions were used (mM): NaCl (140), KCl (4), CaCl2 (2), MgCl2 (1), Sucrose (30), Tetrodotoxin (0.0003), Bicuculline Methiodide (0.005) and HEPES (10, pH 7.4). Intracellular solution (mM): CsCl (120), CsF (20), MgCl2 (2), EGTA (10), HEPES (10, pH=7.2).
Mouse neocortical neurons were cultured essentially as described by Drejer et al. (1987). Briefly, the forebrains from embryonic (E17) NMRI mice were removed under sterile conditions. The tissue was chopped in 0.4 mm cubes and the triturated with trypsin (12.5 μg/ml) and DNAse (2.5 μg/ml), 15 min, 37° C. The cells were suspended at a concentration of 1×10^6 cells/ml in a slightly modified DMEM which contained horse serum (10% (v/v)), penicillin (333 U/ml), paraaminobenzoic acid (1 mg/ml), L-glutamine (0.5 mM), insulin (0.08 U/ml) and KCl (23.8 mM). The cell suspension was subsequently inoculated into poly-L-lysine coated 35 mm Petri dishes (2 ml/dish). Glass coverslips (3.5 mm) were placed in the dishes before coating. After 24 hr in culture, the medium was replaced by freshly made medium containing 1% N2 supplement instead of serum.
The cells were kept in culture for 7–14 days at 37° C. (5% CO2/95% O2) before experiments were carried out.
Electronics, programs and data acquisition: The amplifier used was the EPC-9 (HEKA-electronics, Lambrect, Germany) run by a Power Macintosh G3 computer via an ITC-16 interface. Experimental conditions were set with the Pulse-software accompanying the amplifier. Data were low pass filtered and sampled directly to hard-disk at a rate of 3 times the cut-off frequency.
Pipettes and electrodes: Pipettes were pulled from borosilicate glass (Modulohm, Copenhagen, Denmark) using a horizontal electrode puller (Zeitz-Instrumente, Augsburg, Germany). The pipette resistances were 1.7–2.4 MW in the salt solutions used in these experiments. The pipette electrode was a chloridized silver wire, and the reference was a silverchloride pellet electrode (In Vivo Metric, Healdsburg, USA) fixed to the experimental chamber. The electrodes were zeroed with the open pipette in the bath just prior to sealing.
Experimental procedure: Coverslips were transferred to a […] experimental chamber mounted on the stage of an inverted microscope (IMT-2, Olympus) supplied with Nomarski optics. The neurons were continuously superfused with extracellular saline at a rate of 2.5 ml/min. After giga-seal formation (1–5 GW, success-rate≈90%) the whole cell configuration was attained by suction.
The cells were held at a holding voltage of −60 mV and at the start of each experiment the current was continuously measured for at least 30 sec to ensure a stable leak current. AMPA-containing solutions were delivered to the chamber through a custom-made gravity-driven flowpipe, the tip of which was placed approximately 50 μm from the cell. Application was triggered when the tubing connected to the flow pipe was compressed by a valve controlled by the Pulse-software. AMPA (30 μM) was applied for 1 sec every 45 sec. After obtainment of responses of a repeatable amplitude the compound to be tested was included in both the chamber and in the AMPA-containing solution. The compound was present until responses of a new repeatable was obtained.
The sample interval in all experiments was 310 μsec.
All experiments were performed at room temperature (20–25° C.).

AMPA receptors = experiment: AMPA evoked single neuron spike activity in rat hippocampus (iontophoretic application of AMPA), in vivo; settings: 10 mg kg^−1 i.v.
Text: Evaluation of the in vivo effects of positive AMPA modulators (PAMs) on the AMPA evoked spike activity in rat hippocampus. Hippocampal single neuron spike activity is strongly influenced by excitatory input, and iontophoretic application of AMPA induces spike activity in vivo in a dose-dependent manner ([…] et al. 1998). […] PAMs potentate AMPA receptor activation in vitro, and if this mechanism also operates in vivo, the i.v. injection of an PAM should enhance AMPA evoked spike activity. Thus, the aim of this study was to test the in vivo effect of a group of in vitro active PAMs. This have been done by studying their ability to enhances AMPA evoked spike activity after i.v. administration. Experiments were performed on male Wistar rats (M & B, Denmark) weighing 280-380 g, housed in two per cage with free access to food and water. […] Additional anaesthetic was given i.v. if the rat responded to a pinch of the back foot. The trachea was cannulated and the rats were placed in a stereotaxic frame and ventilated by a rodent ventilator (Ugo Basile, Comerio-Varese, Italy). Core body temperature was maintained at 37.5° C. by a DC heating pad. The left and dorsal part of the parietal bone was removed by craniotomy and the dura was withdrawn exposing the pia mater and underlying brain, covered with 0.9% NaCl. AMPA (Sigma, USA) was dissolved at 10 mM in 0.2 M NaCl. NMDA (Sigma, USA) was dissolved at 100 mM in 100 mM NaCl. Both solutions were adjusted to pH 7.5-8.0 with NaOH. COMPOUND 61 was dissolved in 200 mM CH3SO3^- Na^+ at a contration of 10 mM for iontophoretic application ([…]) and in isotonic glucose (278 mM) for i.v. administration. Cyclothiazide, COMPOUND 63, COMPOUND 56, COMPOUND 115 and COMPOUND 114 were all dissolved at in 5% chremophore solution at a concentration of 5 mg ml^-1. Evoked neuronal spike activity was analyzed on-line by a computer, saving single spikes and time of event. Neuronal spike activity (number of action potentials s^-1) was monitored on a pulse rate histogram together with indicators for AMPA, COMPOUND 61 and vehicle application. Extracellular recordings of single hippocampal neuron spikes were made with five-barrel glass microelectrodes (5B120F-6, World Precision Instruments Inc., Sarasota, Fla., USA) with a tip diameter of 10-12 μm. The individual barrels were filled with 5 M NaCl (recording), 400 mM NaCl (current balancing), 10 mM COMPOUND 61 in 200 mM CH3SO3^- Na^+ (pH 4.7), 200 mM CH3SO3^- Na^+ (pH 4.7, Vehicle), and the last barrel was filled with the AMPA. Experiments were performed on hippocampal neurons (A=5.5-6.5 mm, L=1.5-2.0 mm, H=2.0-3.0 mm, according to Paxinos & Watson, 1986). Neuronal spike activity was evoked by iontophoretic application of AMPA for periods of 10 to 15 s with 1.5 min intervals. Single neuron spike activity was amplified 5000 times with a bandwidth of 0.3 and 3 kHz (CyberAmp 320 with a Al 402 x50 smartprobe, Axon Instruments, California, USA). On-line and off-line analyses were performed by the Spike2 program with a 1401 plus interface (Cambridge Electronic Design Limited, England). The computer program also recorded mean arterial blood pressure and monitored and controlled iontophoretic application. AMPA was ejected into hippocampus in regular cycles of 100-105 s. […] Recording of neuronal spike activity was continued for at least 45 min after intravenous injection. The PAM reactivity was tested by microiontophoretic application of COMPOUND 61 (20 nA, FIG.).

[1] = molecular target: ionotropic quisqualate (AMPA) receptors; experiment: In vitro inhibition of 3H-AMPA binding; settings: 5 nM 3H-AMPA, rat cerebral cortex membranes, 30 min at 2° C.; read-out: IC50 (concentration of the test substance which inhibits the specific binding of 3H-AMPA by 50%)
Text: L-glutamate (GLU) is the major excitatory neurotransmitter in the mammalian central nervous system. From electrophysiological- and binding studies, there appear to be at least three subtypes of GLU receptors, tentatively named N-methyl-D-aspartate (NMDA)-, quisqualate- and kainate receptors. GLU receptor subtypes sensitive to quisqualate and kainate as a group are often referred to as non-NMDA receptors. Receptor binding studies using the labelled agonists ^3H-AMPA (α-amino-3-hydroxy-5-methyl-4-isoxazolepropionic acid) (for quisqualate receptors) and ^3H-kainate (for kainate receptors) have shown different antagonist selectivities and regional distribution. AMPA has been known for several years to be a potent and selective agonist at the traditionally named quisqualate receptors. Activation of quisqualate receptors by AMPA is associated with Na^+ influx and K^+ efflux leading to depolarization.
The non-NMDA receptors have recently been reclassified to include the quisqualate activated metabotropic receptor type, linked to the inositol triphosphate and diacylglycerate metabolism. […] Selective activation of the metabotropic type has been claimed for trans-ACPD. Recently, the potent and competitive non-NMDA receptor antagonists CNQX and NBQX have been described, and CNQX have been reported not to block the effect of quisqualate at the metabotropic receptor subtype. ^3H-AMPA is a selective radioligand for labelling the ionotropic quisqualate (AMPA) receptors.
Preparations are performed at 0–4° C. unless otherwise indicated. Cerebral cortex from male Wistar rats (150–200 g) is homogenized for 5–10 sec in 20 ml Tris-HCl (30 mM, pH 7.4) using an Ultra-Turrax homogenizer. The suspension is centrifuged at 27,000×g for 15 min and the pellet is washed three times with buffer (centrifuged at 27,000×g for 10 min). The washed pellet is homogenized in 20 ml of buffer and incubated on a water bath (37° C.) for 30 min to remove endogenous glutamate and then centrifuged for 10 min at 27,000×g. The pellet is then homogenized in buffer and centrifuged at for 10 min at 27,000×g. The final pellet is resuspended in 30 ml buffer and the preparation is frozen and stored at −20° C.
The membrane preparation is thawed and centrifuged at 2° C. for 10 min at 27,000×g for 10 min. The pellet is washed twice with 20 ml 30 mM Tris-HCl containing 2.5 mM CaCl2, pH 7.4 using an Ultra-Turrax homogenizer and centrifuged for 10 min at 27,000×g. The final pellet is resuspended in 30 mM Tris-HCl containing 2.5 mM CaCl2 and 100 mM KSCN, pH 7.4 (100 ml per g of original tissue) and used for binding assays. Aliquots of 0.5 (0.2) ml are added to 25 (20) μl of test solution and 25(20) μl of ^3H-AMPA (5 nM, final concentration), mixed and incubated for 30 min at 2° C. Non-specific binding is determined using L-glutamate (0.6 mM, final concentration). After incubation the 550 μl samples are added 5 ml of ice-cold buffer and poured directly onto Whatman GF/C glass fibre filters under suction and immediately washed with 5 ml of ice-cold buffer. The 240 μl samples are filtered over glass fibre filter using a Skatron cell harvrester. The filters are washed with 3 ml ice-cold buffer. The amount of radioactivity on the filters is determined by conventional liquid scintillation counting. Specific binding is total binding minus non-specific binding.
The test value will be given as the IC50 (the concentration (μM) of the test substance which inhibits the specific binding of ^3H-AMPA by 50%)

Cc1cc2c(cc1-c1ccccn1)S(=O)(=O)NC(C1CCCCC1)N2 (centres unmarked) [Compound 111, 3-Cyclohexyl-6-methyl-7-(2′-pyridyl)-1,2,3,4-tetrahydro-1,2,4-benzothiadiazine-1,1-dioxide]
reversibility of the potentiation (AMPA receptor): reversible | potentiation of the current induced by application of 30 μM AMPA (AMPA receptor; compound 10 μM): potentiated

O=S1(=O)NC(C2CCCCC2)Nc2ccc(S(=O)(=O)N3CCCCC3)cc21 (centres unmarked) [Compound 56, 3-Cyclohexyl-7-piperidinosulfonyl-1,2,3,4-tetrahydro-1,2,4-benzothiadiazine-1,1-dioxide]
onset of the enhancement after i.v. administration (AMPA receptors): approximately 10 min | AMPA evoked spike activity (AMPA receptors; rat hippocampus): enhancement | reversibility of the potentiation (AMPA receptor): reversible | persistence of the effect after wash out (AMPA receptor; compound 3 μM): persits for several minutes after wash out | potentiation of the current induced by application of 30 μM AMPA (AMPA receptor; compound 3 μM): potentiated

O=S1(=O)NC(C2CCCCC2)Nc2ccc(S(=O)(=O)N3CCCC3)cc21 (centres unmarked) [Compound 49, 3-Cyclohexyl-7-pyrrolidinosulfonyl-1,2,3,4-tetrahydro-1,2,4-benzothiadiazine-1,1-dioxide]
pIC50 [1]: 4.77

Cc1cc2c(cc1S(N)(=O)=O)S(=O)(=O)NC(C1CCCCC1)N2 (centres unmarked) [Compound 113, 3-Cyclohexyl-6-methyl-7-sulfamoyl-1,2,3,4-tetrahydro-1,2,4-benzothiadiazine-1,1-dioxide]
pIC50 [1]: 4.89 | melting point: 231 to 233 °C

NS(=O)(=O)c1ccc2c(c1)S(=O)(=O)NC(C1CCCCC1)N2 (centres unmarked) [Compound 44, 3-Cyclohexyl-7-sulfamoyl-1,2,3,4-tetrahydro-1,2,4-benzothiadiazine-1,1-dioxide]
pIC50 [1]: 5.46

CC(=O)c1ccc2c(c1)S(=O)(=O)NC(C1CCCCC1)N2 (centres unmarked) [Compound 13, 3-Cyclohexyl-7-acetyl-1,2,3,4-tetrahydro-1,2,4-benzothiadiazine-1,1-dioxide]
pIC50 [1]: 4.66

CC(=NO)c1ccc2c(c1)S(=O)(=O)NC(C1CCCCC1)N2 (centres unmarked) [Compound 14, 3-Cyclohexyl-7-(1-hydroxyiminoethyl)-1,2,3,4-tetrahydro-1,2,4-benzothiadiazine-1,1-dioxide]
pIC50 [1]: 4.35

O=S1(=O)NC(C2CCCCC2)Nc2ccc(S(=O)(=O)N3CC=CCC3)cc21 (centres unmarked) [Compound 58, 3-Cyclohexyl-7-(1′,2′,3′,6′-tetrahydropiperidino)sulfonyl-1,2,3,4-tetrahydro-1,2,4-benzothiadiazine-1,1-dioxide]
pIC50 [1]: 5.47
